Reference: patent publication US20090304692A1, “TRIAZINE COMPOUNDS AS PI3 KINASE AND MTOR INHIBITORS” (Wyeth, priority 2008, published 2009)
Several values for one entry are separate records, joined by “and”; a condition that tells them apart may be missing. Equal entries are not always repeated. Where two headings read alike, the source gives them in different places.

Key:
Human mTOR (FLAG-TOR) = Human mTOR (FLAG-TOR) (Homo sapiens, UniProt P42345); assay: mTOR kinase assay (DELFIA format, purified enzyme); type: biochemical; conditions: read-out: IC50 mTOR
[1] = system: human breast MDA-MB-361 tumor cell line; assay: In vitro cell culture growth assay (MTS), MDA-MB-361; type: cell-based; conditions: Homo sapiens, MTS cell growth assay, three days after drug treatment, read-out: IC50 MDA-MB-361
[2] = system: human prostate PC3-mm2 tumor cell line; assay: In vitro cell culture growth assay (MTS), PC3-mm2; type: cell-based; conditions: Homo sapiens, PC3MM2, 72 h, MTS cell growth assay, three days after drug treatment, read-out: IC50 PC3-mm2
PI3K-α = PI3K-α (Homo sapiens, UniProt P42336); assay: PI3K-alpha fluorescence polarization assay; conditions: read-out: IC50 PI3Kα
PI3K-γ = PI3K-γ (Homo sapiens, UniProt P48736); assay: PI3K-gamma fluorescence polarization assay; conditions: read-out: IC50 PI3Kγ
[3] = MDA-MB-361, 72 h, MDA-MB-361 cells

Sequence of PI3K-γ (P48736 whole entry, species assumed): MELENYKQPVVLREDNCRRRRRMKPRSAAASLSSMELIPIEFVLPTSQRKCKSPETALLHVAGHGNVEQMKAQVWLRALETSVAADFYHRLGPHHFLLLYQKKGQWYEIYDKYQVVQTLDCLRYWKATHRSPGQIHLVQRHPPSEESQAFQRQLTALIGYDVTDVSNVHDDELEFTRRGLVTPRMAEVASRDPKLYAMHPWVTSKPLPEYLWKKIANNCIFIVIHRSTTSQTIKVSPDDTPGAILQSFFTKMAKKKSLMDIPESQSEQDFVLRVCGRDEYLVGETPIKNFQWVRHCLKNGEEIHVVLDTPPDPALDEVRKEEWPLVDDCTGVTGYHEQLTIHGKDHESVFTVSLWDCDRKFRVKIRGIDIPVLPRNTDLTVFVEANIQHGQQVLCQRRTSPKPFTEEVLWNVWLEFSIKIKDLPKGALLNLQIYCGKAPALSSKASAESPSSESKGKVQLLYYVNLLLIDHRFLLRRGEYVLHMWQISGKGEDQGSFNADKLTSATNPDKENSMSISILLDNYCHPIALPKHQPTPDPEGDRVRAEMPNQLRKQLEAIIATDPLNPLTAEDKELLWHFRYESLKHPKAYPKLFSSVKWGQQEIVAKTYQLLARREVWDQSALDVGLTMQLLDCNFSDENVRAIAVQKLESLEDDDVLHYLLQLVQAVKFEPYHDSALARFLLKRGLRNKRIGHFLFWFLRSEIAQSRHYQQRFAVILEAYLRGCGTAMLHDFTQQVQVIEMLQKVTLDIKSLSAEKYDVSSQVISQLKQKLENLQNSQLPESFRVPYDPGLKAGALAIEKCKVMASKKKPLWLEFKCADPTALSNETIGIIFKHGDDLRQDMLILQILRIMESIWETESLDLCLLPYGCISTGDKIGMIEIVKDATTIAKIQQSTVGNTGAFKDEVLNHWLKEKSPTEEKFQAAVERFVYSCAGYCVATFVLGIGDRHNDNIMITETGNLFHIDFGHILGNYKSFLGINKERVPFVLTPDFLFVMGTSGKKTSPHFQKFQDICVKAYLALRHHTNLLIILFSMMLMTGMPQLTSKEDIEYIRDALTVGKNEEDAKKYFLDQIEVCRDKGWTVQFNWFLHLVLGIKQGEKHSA
Sequence of PI3K-α (P42336 whole entry, species assumed): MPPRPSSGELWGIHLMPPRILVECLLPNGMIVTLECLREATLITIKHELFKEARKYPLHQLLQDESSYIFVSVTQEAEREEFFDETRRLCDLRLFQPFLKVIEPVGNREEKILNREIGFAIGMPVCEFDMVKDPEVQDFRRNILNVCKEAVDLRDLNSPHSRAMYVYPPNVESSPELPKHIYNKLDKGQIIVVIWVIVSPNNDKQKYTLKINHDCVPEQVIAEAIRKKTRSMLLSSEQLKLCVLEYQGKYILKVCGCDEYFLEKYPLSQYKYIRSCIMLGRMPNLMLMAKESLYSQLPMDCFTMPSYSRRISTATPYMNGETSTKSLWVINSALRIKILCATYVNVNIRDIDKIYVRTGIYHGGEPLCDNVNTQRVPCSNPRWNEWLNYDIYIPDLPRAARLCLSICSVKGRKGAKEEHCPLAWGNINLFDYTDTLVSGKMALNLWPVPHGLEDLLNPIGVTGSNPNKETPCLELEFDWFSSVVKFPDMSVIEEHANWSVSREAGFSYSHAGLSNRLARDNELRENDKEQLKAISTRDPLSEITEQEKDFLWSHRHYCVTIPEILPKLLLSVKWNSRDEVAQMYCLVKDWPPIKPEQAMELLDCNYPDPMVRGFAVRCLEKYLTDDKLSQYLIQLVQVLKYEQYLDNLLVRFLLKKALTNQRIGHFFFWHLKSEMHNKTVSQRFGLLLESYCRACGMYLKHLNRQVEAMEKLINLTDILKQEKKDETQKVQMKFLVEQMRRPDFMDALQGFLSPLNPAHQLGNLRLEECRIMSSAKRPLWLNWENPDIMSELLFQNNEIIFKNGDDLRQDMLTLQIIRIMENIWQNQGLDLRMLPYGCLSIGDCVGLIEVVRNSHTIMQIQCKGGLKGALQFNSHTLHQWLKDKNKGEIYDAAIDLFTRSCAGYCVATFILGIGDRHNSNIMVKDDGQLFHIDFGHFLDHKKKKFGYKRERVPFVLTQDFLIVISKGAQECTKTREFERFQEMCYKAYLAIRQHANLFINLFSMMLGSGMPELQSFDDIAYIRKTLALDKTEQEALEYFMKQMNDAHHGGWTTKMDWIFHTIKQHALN
Sequence of PI3K-α (P27986 whole entry partner, species assumed): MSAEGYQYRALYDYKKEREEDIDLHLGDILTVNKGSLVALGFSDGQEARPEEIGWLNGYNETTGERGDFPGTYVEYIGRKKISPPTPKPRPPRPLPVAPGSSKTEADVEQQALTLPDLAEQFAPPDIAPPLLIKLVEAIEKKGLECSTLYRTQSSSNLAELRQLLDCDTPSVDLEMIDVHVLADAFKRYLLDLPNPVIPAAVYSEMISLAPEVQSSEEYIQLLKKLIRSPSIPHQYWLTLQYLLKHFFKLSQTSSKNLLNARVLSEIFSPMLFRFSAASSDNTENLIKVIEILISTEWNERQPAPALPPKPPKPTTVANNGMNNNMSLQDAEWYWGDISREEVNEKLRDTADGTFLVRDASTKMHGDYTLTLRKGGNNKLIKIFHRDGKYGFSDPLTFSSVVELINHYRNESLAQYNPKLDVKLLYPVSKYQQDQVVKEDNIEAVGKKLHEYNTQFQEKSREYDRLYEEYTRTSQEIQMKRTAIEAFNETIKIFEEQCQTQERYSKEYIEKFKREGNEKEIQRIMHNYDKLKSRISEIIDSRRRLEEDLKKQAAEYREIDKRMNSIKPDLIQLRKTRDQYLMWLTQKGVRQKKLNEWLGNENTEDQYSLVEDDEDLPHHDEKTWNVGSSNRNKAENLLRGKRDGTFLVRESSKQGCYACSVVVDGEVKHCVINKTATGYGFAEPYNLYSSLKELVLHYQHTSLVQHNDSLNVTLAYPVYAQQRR
Sequence of Human mTOR (FLAG-TOR) (P42345 1360-2549 limits assumed): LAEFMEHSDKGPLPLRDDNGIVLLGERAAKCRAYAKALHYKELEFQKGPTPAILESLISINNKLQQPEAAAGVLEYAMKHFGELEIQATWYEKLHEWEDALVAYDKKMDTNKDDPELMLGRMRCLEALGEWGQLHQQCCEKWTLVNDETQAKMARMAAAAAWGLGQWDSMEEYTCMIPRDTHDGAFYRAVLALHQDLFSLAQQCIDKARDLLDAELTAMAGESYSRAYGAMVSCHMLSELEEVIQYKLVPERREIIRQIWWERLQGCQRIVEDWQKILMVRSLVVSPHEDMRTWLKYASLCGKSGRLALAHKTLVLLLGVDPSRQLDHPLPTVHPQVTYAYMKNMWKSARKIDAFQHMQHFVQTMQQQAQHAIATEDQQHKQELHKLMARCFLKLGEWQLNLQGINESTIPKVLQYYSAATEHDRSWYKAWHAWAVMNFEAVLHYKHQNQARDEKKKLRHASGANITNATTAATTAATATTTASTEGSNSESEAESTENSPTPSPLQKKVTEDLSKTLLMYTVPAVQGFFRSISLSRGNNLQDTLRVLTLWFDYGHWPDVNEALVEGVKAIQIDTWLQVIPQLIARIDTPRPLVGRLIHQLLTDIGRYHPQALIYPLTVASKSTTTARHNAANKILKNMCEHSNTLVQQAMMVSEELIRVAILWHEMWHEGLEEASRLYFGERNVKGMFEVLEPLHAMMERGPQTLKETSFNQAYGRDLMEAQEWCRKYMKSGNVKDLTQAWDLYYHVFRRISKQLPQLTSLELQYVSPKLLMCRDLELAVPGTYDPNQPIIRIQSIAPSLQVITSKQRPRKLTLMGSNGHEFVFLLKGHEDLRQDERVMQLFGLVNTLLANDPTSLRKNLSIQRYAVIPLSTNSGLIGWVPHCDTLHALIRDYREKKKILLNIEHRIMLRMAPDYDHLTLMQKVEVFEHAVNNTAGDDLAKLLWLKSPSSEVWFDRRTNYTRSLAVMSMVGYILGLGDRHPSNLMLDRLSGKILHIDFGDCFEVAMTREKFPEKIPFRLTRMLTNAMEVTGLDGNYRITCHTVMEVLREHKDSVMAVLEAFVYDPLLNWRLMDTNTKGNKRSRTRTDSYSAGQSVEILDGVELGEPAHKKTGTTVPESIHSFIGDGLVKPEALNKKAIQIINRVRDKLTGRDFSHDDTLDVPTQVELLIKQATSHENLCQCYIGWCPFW

Row | IC50 (Human mTOR (FLAG-TOR)) | IC50 ([1]; MDA-MB-361, 72 h) [nM] | IC50 [2] [nM] | IC50 (PI3K-α) [nM] | IC50 (PI3K-γ) [nM] | IC50 ([2]; PC3-mm2 cells) [nM] | IC50 (PI3K-γ; listed as 707) [nM] | IC50 ([1]; 72 h, MDA-MB-361 cells) [nM] | IC50 [1, 3] [nM] | IC50 (PI3K-α; listed as 715) [nM] | IC50 (PI3K-γ; listed as 715) [nM] | SMILES | IC50 (PI3K-γ; listed as 749) [nM]
1 | 1.06 nM |  |  | 1.4 | 7.5 | 11 |  | 3 |  |  |  | CC(C)N1CCN(C(=O)c2ccc(NC(=O)Nc3ccc(-c4nc(O[C@H]5CCOC5)nc(N5CCOCC5)n4)cc3)cc2)CC1 [Example 522, 1-(4-{[4-(1-methylethyl)piperazin-1-yl]carbonyl}phenyl)-3-(4-{4-morpholin-4-yl-6-[(3S)-tetrahydrofuran-3-yloxy]-1,3,5-triazin-2-yl}phenyl)urea] | 
2 | 7.75 nM |  |  | 11 | 70 | 197 |  |  | 68 |  |  | Cc1ccc(-c2nc(-c3ccc(NC(=O)Nc4ccc(C(=O)N5CCN(C(C)C)CC5)cc4)cc3)nc(N3CCOCC3)n2)cc1 [Example 547, 1-{4-[(4-isopropylpiperazin-1-yl)carbonyl]phenyl}-3-{4-[4-(4-methylphenyl)-6-morpholin-4-yl-1,3,5-triazin-2-yl]phenyl}urea] | 
3 | 9.75 nM |  |  | 40 | 387 | 869 |  | 524 |  |  |  | Cc1ccc(-c2nc(-c3ccc(NC(=O)Nc4ccc(C(=O)NCCN5CCCC5)cc4)cc3)nc(N3CCOCC3)n2)cc1 [Example 548, 4-[({4-[4-(4-methylphenyl)-6-morpholin-4-yl-1,3,5-triazin-2-yl]phenyl}carbamoyl)amino]-N-(2-pyrrolidin-1-ylethyl)benzamide] | 
4 | 6 nM |  |  | 1 | 12.5 | 25 |  | 6 |  |  |  | COCCNC(=O)c1ccc(NC(=O)Nc2ccc(-c3nc(N4CCCOCC4)nc(N4CCOCC4)n3)cc2)cc1 [Example 574, N-(2-methoxyethyl)-4-[({4-[4-morpholin-4-yl-6-(1,4-oxazepan-4-yl)-1,3,5-triazin-2-yl]phenyl}carbamoyl)amino]benzamide] | 
5 | 10 nM |  |  | 24 | 118 | 270 |  | 106 |  |  |  | COCCNC(=O)c1ccc(NC(=O)Nc2ccc(-c3nc(-c4ccccc4)nc(N4CCOCC4)n3)cc2)cc1 [Example 551, N-(2-methoxyethyl)-4-({[4-(4-morpholin-4-yl-6-phenyl-1,3,5-triazin-2-yl)phenyl]carbamoyl}amino)benzamide] | 
6 | 55.5 nM |  |  | 6 | 45.5 | > 1000 |  | > 1000 |  |  |  | O=C(Nc1ccc(C(=O)N2CCNCC2)cc1)Nc1ccc(-c2nc(NS(=O)(=O)c3ccccc3)nc(N3CCOCC3)n2)cc1 [Example 785, N-{4-morpholin-4-yl-6-[4-({[4-(piperazin-1-ylcarbonyl)phenyl]carbamoyl}amino)phenyl]-1,3,5-triazin-2-yl}benzenesulfonamide] | 
7 | 1 nM |  |  | 2 | 18.5 | 13 |  |  | 2 |  |  | CC(C)N1CCN(C(=O)c2ccc(NC(=O)Nc3ccc(-c4nc(N5CCOCC5)nc(N5CCOC[C@@H]5C)n4)cc3)cc2)CC1 [Example 618, 1-(4-{[4-(1-methylethyl)piperazin-1-yl]carbonyl}phenyl)-3-(4-{4-[(3S)-3-methylmorpholin-4-yl]-6-morpholin-4-yl-1,3,5-triazin-2-yl}phenyl)urea] | 
8 | 17 nM |  |  | 8.5 | 50.5 | 137 |  |  | 17 |  |  | CC(C)N1CCN(C(=O)c2ccc(NC(=O)Nc3ccc(-c4nc(N5CCCC5)nc(N5CCOCC5)n4)cc3)cc2)CC1 [Example 603, 1-(4-{[4-(1-methylethyl)piperazin-1-yl]carbonyl}phenyl)-3-[4-(4-morpholin-4-yl-6-pyrrolidin-1-yl-1,3,5-triazin-2-yl)phenyl]urea] | 
9 | 0.225 nM |  |  | 3.5 | 73.5 | 25 |  | 7 |  |  |  | C[C@H]1COCCN1c1nc(-c2ccc(NC(=O)Nc3ccc(C(=O)NCCN(C)C)cc3)cc2)nc(N2CCOC[C@@H]2C)n1 [Example 546, 4-{[(4-{4,6-bis[(3S)-3-methylmorpholin-4-yl]-1,3,5-triazin-2-yl}phenyl)carbamoyl]amino}-N-[2-(dimethylamino)ethyl]benzamide] | 
10 | 3 nM |  |  | 24.3 | 107 | 136 |  | 46 |  |  |  | COCCNC(=O)c1ccc(NC(=O)Nc2ccc(-c3nc(N4CCOCC4)nc(N4CCN(C(=O)N(C)C)CC4)n3)cc2)cc1 [Example 647, 4-(4-{4-[({4-[(2-methoxyethyl)carbamoyl]phenyl}carbamoyl)amino]phenyl}-6-morpholin-4-yl-1,3,5-triazin-2-yl)-N,N-dimethylpiperazine-1-carboxamide] | 

Further lines, the molecule ahead of its results:

Row | SMILES | IC50 (Human mTOR (FLAG-TOR)) | IC50 ([1]; MDA-MB-361, 72 h) [nM] | IC50 [2] [nM] | IC50 (PI3K-α) [nM] | IC50 (PI3K-γ) [nM] | IC50 ([2]; PC3-mm2 cells) [nM] | IC50 (PI3K-γ; listed as 707) [nM] | IC50 ([1]; 72 h, MDA-MB-361 cells) [nM] | IC50 [1, 3] [nM] | IC50 (PI3K-α; listed as 715) [nM] | IC50 (PI3K-γ; listed as 715) [nM] | IC50 (PI3K-γ; listed as 749) [nM]
11 | CCCCc1nc(-c2ccc(NC(=O)Nc3ccc(C(=O)N4CCC(N(C)C)CC4)cc3)cc2)nc(N2CCOCC2)n1 [Example 241, 1-[4-(4-butyl-6-morpholin-4-yl-1,3,5-triazin-2-yl)phenyl]-3-(4-{[4-(dimethylamino)piperidin-1-yl]carbonyl}phenyl)urea] | 9 nM | 24 | 135 | 6 | 23 |  |  |  |  |  |  | 
12 | O=C(Nc1ccccc1)Nc1ccc(-c2nc(N3CCOCC3)nc(N3CCC4(CC3)OCCO4)n2)cc1 [Example 132, 1-{4-[4-(1,4-dioxa-8-azaspiro[4.5]dec-8-yl)-6-morpholin-4-yl-1,3,5-triazin-2-yl]phenyl}-3-phenylurea] | 26 nM and 34 nM | 586 | 1010 | 14 | 234 | 1010 | 234 |  |  |  |  | 
13 | CCc1nc(-c2ccc(NC(=O)Nc3ccc(C(=O)N4CCC(N(C)C)CC4)cc3)cc2)nc(N2CCOCC2)n1 [Example 238, 1-(4-{[4-(dimethylamino)piperidin-1-yl]carbonyl}phenyl)-3-[4-(4-ethyl-6-morpholin-4-yl-1,3,5-triazin-2-yl)phenyl]urea] | 3.6 nM | 23 | 61 | 1 | 10 |  |  |  |  |  |  | 
14 | CN(C)CCN(C)C(=O)c1ccc(NC(=O)Nc2ccc(-c3nc(N4CCOCC4)nc(N4C5CCC4COC5)n3)cc2)cc1 [Example 698, N-[2-(dimethylamino)ethyl]-N-methyl-4-[({4-[4-morpholin-4-yl-6-(3-oxa-8-azabicyclo[3.2.1]oct-8-yl)-1,3,5-triazin-2-yl]phenyl}carbamoyl)amino]benzamide] | 0.302 nM |  |  | 2.7 | 44.7 | 6 |  | < 3 |  |  |  | 
15 | O=C(Nc1ccncc1)Nc1ccc(-c2nc(NC3CNC3)nc(N3CCOCC3)n2)cc1 [Example 22, 1-{4-[4-(azetidin-3-ylamino)-6-morpholin-4-yl-1,3,5-triazin-2-yl]phenyl}-3-pyridin-4-ylurea] | 4.75 nM | 1420 | 2440 | 12 | 142 |  |  |  |  |  |  | 
16 | CC(O)c1ccc(NC(=O)Nc2ccc(-c3nc(N4CCOCC4)nc(N4C[C@H]5C[C@@H]4CN5C(=O)OC(C)(C)C)n3)cc2)cc1 (stereo partly drawn) [Example 302, tert-butyl-(1R,4R)-5-{4-[4-({[4-(1-hydroxyethyl)phenyl]carbamoyl}amino)phenyl]-6-morpholin-4-yl-1,3,5-triazin-2-yl}-2,5-diazabicyclo[2.2.1]heptane-2-carboxylate] | 36 nM | 299 | 539 | 35 | 263 |  |  |  |  |  |  | 
17 | Cc1nc(-c2ccc(NC(=O)Nc3ccncc3)cc2)nc(N2CCOCC2)n1 [Example 161, 1-[4-(4-methyl-6-morpholin-4-yl-1,3,5-triazin-2-yl)phenyl]-3-pyridin-4-ylurea] | 30 nM | 328 | 675 | 39 | 155 |  |  |  |  |  |  | 
18 | COCCOc1nc(-c2ccc(NC(=O)Nc3ccc(C(=O)OC)cc3)cc2)nc(N2CCOCC2)n1 [Example 211, methyl 4-[({4-[4-(2-methoxyethoxy)-6-morpholin-4-yl-1,3,5-triazin-2-yl]phenyl}carbamoyl)amino]benzoate] | 6 nM | 254 | 389 | 80 | 108 | 389 |  |  |  | 59.5 | 146 | 
19 | CCCCc1nc(-c2ccc(NC(=O)Nc3ccc(C(=O)O)cc3)cc2)nc(N2CCOCC2)n1 [Example 184, 4-({[4-(4-butyl-6-morpholin-4-yl-1,3,5-triazin-2-yl)phenyl]carbamoyl}amino)benzoic acid] | 4 nM | 1250 | 2090 | 30 | 143 |  |  |  |  |  |  | 
20 | O=C(Nc1ccc(-c2nc(N3CCOCC3)nc(N3C4CCC3COC4)n2)cc1)Nc1ccc(Cl)nc1 [Example 349, 1-(6-chloropyridin-3-yl)-3-{4-[4-morpholin-4-yl-6-(3-oxa-8-azabicyclo[3.2.1]oct-8-yl)-1,3,5-triazin-2-yl]phenyl}urea] | 2 nM | 87 | 81 | 59 | 163 | 81 |  |  |  |  |  | 164
